Test results published in PubChem BioAssay (NCI).
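All cell lines were grown in 96-well plates and treated with compound for 48 hours. TGI: total growth inhibition.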

Key:
Assay in all cases: inhibition of tumour cell growth, NCI panel, 48 h
[1] = test system: 786-0 renal
[2] = test system: A498 renal
[3] = test system: A549 NSCLC
[4] = test system: ACHN renal
[5] = test system: BT-549 breast
[6] = test system: CAKI-1 renal
[7] = test system: CCRF-CEM leukemia
[8] = test system: COLO 205 colon
[9] = test system: DU-145 prostate
[10] = test system: EKVX NSCLC
[11] = test system: HCC-2998 colon
[12] = test system: HCT-116 colon
[13] = test system: HCT-15 colon
[14] = test system: HOP-62 NSCLC
[15] = test system: HOP-92 NSCLC
[16] = test system: HS 578T breast
[17] = test system: HT29 colon
[18] = test system: IGROV1 ovarian
[19] = test system: K-562 leukemia
[20] = test system: KM12 colon
[21] = test system: LOX IMVI melanoma
[22] = test system: M14 melanoma
[23] = test system: MALME-3M melanoma
[24] = test system: MCF7 breast
[25] = test system: MDA-MB-231 breast
[26] = test system: MDA-MB-435
[27] = test system: MDA-N
[28] = test system: MOLT-4 leukemia
[29] = test system: NCI-H226 lung
[30] = test system: NCI-H23 lung
[31] = test system: NCI-H460 lung
[32] = test system: NCI-H522 lung
[33] = test system: NCI/ADR-RES ovarian
[34] = test system: OVCAR-3 ovarian
[35] = test system: OVCAR-4 ovarian
[36] = test system: OVCAR-5 ovarian
[37] = test system: OVCAR-8 ovarian
[38] = test system: PC-3 prostate
[39] = test system: RPMI-8226 leukemia
[40] = test system: RXF 393 renal
[41] = test system: SF-268 CNS
[42] = test system: SF-295 CNS
[43] = test system: SF-539 CNS
[44] = test system: SK-MEL-2 melanoma
[45] = test system: SK-MEL-28 melanoma
[46] = test system: SK-MEL-5 melanoma
[47] = test system: SK-OV-3 ovarian
[48] = test system: SN12C renal
[49] = test system: SNB-19 CNS
[50] = test system: SNB-75 CNS
[51] = test system: SR leukemia
[52] = test system: SW-620 colon
[53] = test system: T-47D breast
[54] = test system: TK-10 renal
[55] = test system: U251 CNS
[56] = test system: UACC-257 melanoma
[57] = test system: UACC-62 melanoma
[58] = test system: UO-31 renal
[59] = test system: HL-60(TB) leukemia

CC(C)[Si](OC/C(=C/COC(C)(C)C)[C@H]1CC=C(C(=O)c2ccccc2N2CN(C)C(=O)N(C)C2)C1)(C(C)C)C(C)C
TGI [1]: 17.9 µM | TGI [2]: 34.5 µM | TGI [3]: 23 µM | TGI [4]: 28.6 µM | TGI [5]: 26.5 µM | TGI [6]: 23.5 µM | TGI [7]: > 100 µM | TGI [8]: 31 µM | TGI [9]: 29.9 µM | TGI [10]: 30.3 µM | TGI [11]: 31 µM | TGI [12]: 4.97 µM | TGI [13]: 27.1 µM | TGI [14]: 31.5 µM | TGI [15]: 25.1 µM | TGI [16]: 13.2 µM | TGI [17]: 18.7 µM | TGI [18]: 25.6 µM | TGI [19]: > 36.4 µM | TGI [20]: 44.4 µM | TGI [21]: 4.06 µM | TGI [22]: 27 µM | TGI [23]: 21.4 µM | TGI [24]: 15.1 µM | TGI [25]: 26.6 µM | TGI [26]: 30.3 µM | TGI [27]: 4.62 µM | TGI [28]: 1.67 µM | TGI [29]: 28.9 µM | TGI [30]: 30 µM | TGI [31]: 28.7 µM | TGI [32]: 19.7 µM | TGI [33]: 32.7 µM | TGI [34]: 25 µM | TGI [35]: 39.3 µM | TGI [36]: 28.7 µM | TGI [37]: 18.1 µM | TGI [38]: 18.1 µM | TGI [39]: 15.6 µM | TGI [40]: 17.5 µM | TGI [41]: 17.3 µM | TGI [42]: 28.9 µM | TGI [43]: 17.8 µM | TGI [44]: 28.9 µM | TGI [45]: 12.9 µM | TGI [46]: 23.1 µM | TGI [47]: 31.2 µM | TGI [48]: 24.9 µM | TGI [49]: 24.9 µM | TGI [50]: 28.7 µM | TGI [51]: 5.95 µM | TGI [52]: 6.61 µM | TGI [53]: 23.6 µM | TGI [54]: 24.2 µM | TGI [55]: 23 µM | TGI [56]: 23.9 µM | TGI [57]: 23.3 µM | TGI [58]: 23.1 µM

COc1c(O)c(OC)c2oc(-c3ccc(O)cc3)c(OC)c(=O)c2c1O
TGI [1]: 86.3 µM | TGI [2]: > 100 µM | TGI [3]: > 100 µM | TGI [4]: > 100 µM | TGI [5]: > 100 µM | TGI [6]: > 100 µM | TGI [7]: > 100 µM | TGI [8]: > 100 µM | TGI [9]: > 100 µM | TGI [10]: > 100 µM | TGI [11]: > 100 µM | TGI [12]: > 100 µM | TGI [13]: > 100 µM | TGI [59]: > 100 µM | TGI [14]: 94.9 µM | TGI [16]: 57 µM | TGI [17]: > 100 µM | TGI [18]: 51.4 µM | TGI [19]: > 100 µM | TGI [20]: > 100 µM | TGI [21]: > 100 µM | TGI [22]: > 100 µM | TGI [23]: > 100 µM | TGI [24]: > 100 µM | TGI [25]: > 100 µM | TGI [26]: > 100 µM | TGI [27]: > 100 µM | TGI [28]: > 100 µM | TGI [29]: > 100 µM | TGI [30]: > 100 µM | TGI [31]: > 100 µM | TGI [32]: 70.9 µM | TGI [33]: > 100 µM | TGI [34]: 74.9 µM | TGI [36]: > 100 µM | TGI [37]: > 100 µM | TGI [38]: > 100 µM | TGI [39]: > 100 µM | TGI [41]: 34.1 µM | TGI [42]: > 100 µM | TGI [43]: > 100 µM | TGI [44]: > 100 µM | TGI [45]: > 100 µM | TGI [46]: > 100 µM | TGI [47]: 53.7 µM | TGI [48]: > 100 µM | TGI [49]: > 100 µM | TGI [51]: > 100 µM | TGI [52]: > 100 µM | TGI [53]: 55.7 µM | TGI [54]: > 100 µM | TGI [55]: > 100 µM | TGI [56]: > 100 µM | TGI [57]: > 100 µM | TGI [58]: > 100 µM
